Data published in US20060211676A1, “Crystalline anhydrous cefdinir and crystalline cefdinir hydrates” (priority 2004, published 2006).

Experiment: Dynamic Moisture Sorption/Desorption Gravimetric (DMSG) analysis
Assay type: physicochemical
Conditions: relative humidity from 50% to 90%
Procedure: Dynamic Moisture Sorption/Desorption Gravimetric (DMSG) analysis was performed for the cefdinir lower hydrates. A vacuum moisture balance (MB 300G, VTI Corporation) was used to study the moisture sorption and desoprtion. Samples were dried at 50° C. under vacuum to constant weight. Relative humidity was increased to 90% in 10% increments. If the sample weight remained unchanged (i.e. changed by less than about 3 mg/15 min), the moisture content was recorded. The balance was calibrated before the experiment and the accuracy of the relative humidity measurement was verified with polyvinylpyrrolidone K90. […] Sharp steps, for example with relative humidity changes from 40% to 50%, occur when the crystal undergoes a phase change (i.e. a crystalline structure change). […] Increases in the relative humidity from 10% to almost 40%, results in the formation of crystalline iso-structural hydrates. The cefdinir iso-structural hydrates varied but maintained the same crystalline structure and PXRD patterns (FIG. 6). An increase in the relative humidity from 40% to 50% caused a crystalline structure change, and further increase of relative humidity from 50% to 90% caused cefdinir trihemihydrate (having a water content of about 14%) to form. […] The weight changes are expressed by percentage of water content and by the calculated molar content of water.

water content: about 14%
Compound: C=CC1=C(C(=O)O)N2C(=O)[C@@H](NC(=O)/C(=N\O)c3csc(N)n3)[C@H]2SC1.C=CC1=C(C(=O)O)N2C(=O)[C@@H](NC(=O)/C(=N\O)c3csc(N)n3)[C@H]2SC1.O.O.O.O.O.O.O [cefdinir trihemihydrate, crystalline(6R-(6α,7β(Z)))-7-(((2-amino-1,3-thiazol-4-yl)(hydroxyimino)acetyl)amino)-3-ethenyl-8-oxo-5-thia-1-azabicyclo[4.2.0]oct-2-ene-2-carboxylic acid.3.5H2O]
